Literature values in US20120328543A1, “USE OF A CATIONIC, ADVANTAGEOUSLY AMPHOTERIC, SURFACTANT FOR THE PREPARATION OF AN ANTIFUNGAL SOLUTION THAT CAN BE APPLIED TO THE NAIL” (priority 2009, published 2012).

What was measured:
[1] = not given; remark: listed apart in the source

CN(C/C=C/C#CC(C)(C)C)Cc1cccc2ccccc12.Cl [Terbinafine HCl, terbinafine hydrochloride]
pKa: 7.10 | solubility in water [1]: 5.32 µg/mL
